According to patent US11564928B1, “Cannabinoid receptor type 2 (CB2) modulators and uses thereof” (Teon Therapeutics, Inc., priority 2020, dated 2023):
Where two headings read alike, the source gives them in different places.

Columns and labels:
human CB2 receptor = human CB2 receptor (Homo sapiens (Human), UniProt P34972); assay: CB2 receptor binding assay ([3H]CP-55,940 displacement, HEK-293 membranes)
human recombinant CB1R = human recombinant CB1R (Homo sapiens (Human), UniProt P21554); assay: CB1 receptor binding assay ([3H]CP-55,940 displacement, HEK-293 membranes)
human recombinant CB1R, sequence (P21554 whole entry): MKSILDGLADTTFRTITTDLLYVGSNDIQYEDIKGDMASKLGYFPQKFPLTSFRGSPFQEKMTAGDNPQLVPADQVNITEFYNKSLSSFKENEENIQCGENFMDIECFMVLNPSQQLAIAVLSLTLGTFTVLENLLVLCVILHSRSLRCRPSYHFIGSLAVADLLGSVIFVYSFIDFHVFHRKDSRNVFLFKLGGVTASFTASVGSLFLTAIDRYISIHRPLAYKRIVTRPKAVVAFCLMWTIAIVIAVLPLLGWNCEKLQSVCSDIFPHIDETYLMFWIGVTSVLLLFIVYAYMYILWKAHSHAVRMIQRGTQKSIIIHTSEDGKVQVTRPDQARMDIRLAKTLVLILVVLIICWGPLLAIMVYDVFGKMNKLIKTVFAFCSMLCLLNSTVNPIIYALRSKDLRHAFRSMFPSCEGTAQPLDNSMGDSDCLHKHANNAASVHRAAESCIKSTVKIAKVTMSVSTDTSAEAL
Method: The compounds were evaluated in CB1R and CB2R binding assays using membranes from HEK-293 cells transfected with cDNAs encoding the human recombinant CB1R (Bmax=[…] protein) and human recombinant CB2R (Bmax=[…] protein) (Perkin-Elmer). […]. Compounds were tested following the procedure described by the cell membrane manufacturer. […] CB2R binding assays were carried out with two different buffers: incubation buffer (Tris-HCl, 50 mM; MgCl2, 5 mM; CaCl2 1 mM; BSA, 0.2% at pH 7.4) and washing buffer (Tris-HCl, 50 mM; NaCl 500 mM; BSA, 0.1% at pH 7.4). […] Assays were performed in duplicate and incubated for […] at 37° C. After the incubation, the assay mixture is filtered through 96 GF/C filter plates (Perkin Elmer #6005174) using Perkin Elmer Filtermate Harvester, and then washed four times with ice-cold washing buffer. The filters are dried for 1 hour at 50° C. and [^3H] trapped on filter counted for radioactivity in Perkin Elmer Microscint 20 cocktail (#6013329) using Perkin Elmer MicroBeta2 Reader. […] Data are analyzed and IC50 is calculated using GraphPad Prism 5 and the model “log(inhibitor) vs. response—Variable slope”. The binding affinity of the compounds is Determined by Using the Cheng and Prusoff Equation Ki=IC50/(1+[radioligand]/Kd).

[1] = membranes of HEK-293 cells with human recombinant CB2R, [3H]CP-55,940, class symbols, read-out: CB2 IC50
[2] = membranes of HEK-293 cells with human recombinant CB1R, [3H]CP-55,940, class symbols, read-out: CB1 IC50

human CB2 receptor, sequence (P34972 whole entry): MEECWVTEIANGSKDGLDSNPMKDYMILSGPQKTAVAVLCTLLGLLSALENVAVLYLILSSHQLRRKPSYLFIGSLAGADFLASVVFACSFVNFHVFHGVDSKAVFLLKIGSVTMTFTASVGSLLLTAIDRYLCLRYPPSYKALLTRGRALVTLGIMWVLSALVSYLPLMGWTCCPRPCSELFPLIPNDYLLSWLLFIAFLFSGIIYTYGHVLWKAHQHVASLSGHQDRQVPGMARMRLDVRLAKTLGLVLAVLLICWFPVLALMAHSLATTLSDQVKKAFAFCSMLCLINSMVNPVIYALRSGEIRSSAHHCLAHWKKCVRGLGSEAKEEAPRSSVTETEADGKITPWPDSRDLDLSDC

SMILES	IC50 (human CB2 receptor; [1])	IC50 (human recombinant CB1R; [2])	other results
O=C(NC1CC2(CCC2)C1)c1cc2cc(-c3ccc(F)cc3)cnc2n(Cc2cccnc2)c1=O [Compound 97, 6-(4-fluorophenyl)-2-oxo-1-(pyridin-3-ylmethyl)-N-(spiro[3.3]heptan-2-yl)-1,2-dihydro-1,8-naphthyridine-3-carboxamide]	< 100 nM	> 1000 nM	
C[C@@H](NC(=O)c1cc2cc(Br)cnc2n(Cc2ccc(C#N)cc2)c1=O)c1ccc(F)cc1 [Compound 104, (R)-6-bromo-1-(4-cyanobenzyl)-N-(1-(4-fluorophenyl)ethyl)-2-oxo-1,2-dihydro-1,8-naphthyridine-3-carboxamide]	< 100 nM	> 1000 nM	
O=C(NC1CC2(CCC2)C1)c1cc2cc(-c3ccc(F)cc3)cnc2n(Cc2ccccn2)c1=O [Compound 106, 6-(4-fluorophenyl)-2-oxo-1-(pyridin-2-ylmethyl)-N-(spiro[3.3]heptan-2-yl)-1,2-dihydro-1,8-naphthyridine-3-carboxamide]	< 100 nM	> 1000 nM	
CC(C)c1cnc2c(c1)cc(C(=O)N[C@H](C)c1ccc(C#N)cc1)c(=O)n2Cc1ccc(F)cn1 [Compound 108, (R)—N-(1-(4-cyanophenyl)ethyl)-1-((5-fluoropyridin-2-yl)methyl)-6-isopropyl-2-oxo-1,2-dihydro-1,8-naphthyridine-3-carboxamide]		> 1000 nM	IC50 (human CB2 receptor): 100 to 999 nM
C[C@H]1CC[C@@H](NC(=O)c2c(O)c3cc(-c4ccc(F)cc4)cnc3n(CCN3CCOCC3)c2=O)CC1 [Compound 109, 6-(4-fluorophenyl)-4-hydroxy-N-((1s, 4s)-4-methylcyclohexyl)-1-(2-morpholinoethyl)-2-oxo-1,2-dihydro-1,8-naphthyridine-3-carboxamide]	< 100 nM	> 1000 nM	
CC12CC(NC(=O)c3c(O)c4cc(-c5ccc(F)cc5)cnc4n(CCN4CCOCC4)c3=O)(C1)C2 [Compound 110, 6-(4-fluorophenyl)-4-hydroxy-N-(3-methylbicyclo[1.1.1]pentan-1-yl)-1-(2-morpholinoethyl)-2-oxo-1,2-dihydro-1,8-naphthyridine-3-carboxamide]			IC50 (human CB2 receptor): 100 to 999 nM; IC50 (human recombinant CB1R): 100 to 999 nM
CC1(C)CC(NC(=O)c2c(O)c3cc(-c4ccc(F)cc4)cnc3n(CCN3CCOCC3)c2=O)C1 [Compound 111, N-(3,3-dimethylcyclobutyl)-6-(4-fluorophenyl)-4-hydroxy-1-(2-morpholinoethyl)-2-oxo-1,2-dihydro-1,8-naphthyridine-3-carboxamide]	< 100 nM		IC50 (human recombinant CB1R): 100 to 999 nM
O=C(NC1CC2(CC2)C1)c1c(O)c2cc(-c3ccc(F)cc3)cnc2n(CCN2CCOCC2)c1=O [Compound 112, 6-(4-fluorophenyl)-4-hydroxy-1-(2-morpholinoethyl)-2-oxo-N-(spiro[2.3]hexan-5-yl)-1,2-dihydro-1,8-naphthyridine-3-carboxamide]	< 100 nM	> 1000 nM	
C[C@H]1C[C@@H](NC(=O)c2c(O)c3cc(-c4ccc(F)cc4)cnc3n(CCN3CCOCC3)c2=O)C1 [Compound 113, 6-(4-fluorophenyl)-4-hydroxy-N-((1s, 3s)-3-methylcyclobutyl)-1-(2-morpholinoethyl)-2-oxo-1,2-dihydro-1,8-naphthyridine-3-carboxamide]	> 1000 nM	> 1000 nM	
C[C@H]1C[C@H](NC(=O)c2c(O)c3cc(-c4ccc(F)cc4)cnc3n(CCN3CCOCC3)c2=O)C1 [Compound 114, 6-(4-fluorophenyl)-4-hydroxy-N-((1r, 3r)-3-methylcyclobutyl)-1-(2-morpholinoethyl)-2-oxo-1,2-dihydro-1,8-naphthyridine-3-carboxamide]		> 1000 nM	IC50 (human CB2 receptor): 100 to 999 nM
O=C(NC12CCC(C1)C2)c1c(O)c2cc(-c3ccc(F)cc3)cnc2n(CCN2CCOCC2)c1=O [Compound 115, N-(bicyclo[2.1.1]hexan-1-yl)-6-(4-fluorophenyl)-4-hydroxy-1-(2-morpholinoethyl)-2-oxo-1,2-dihydro-1,8-naphthyridine-3-carboxamide]			IC50 (human CB2 receptor; membranes of HEK-293 cells with human recombinant CB2R, [3H]CP-55,940, read-out: CB2 IC50): 29 nM; IC50 (human recombinant CB1R; membranes of HEK-293 cells with human recombinant CB1R, [3H]CP-55,940, read-out: CB1 IC50): 552 nM
